{
  "source": "patent US20250257146A1",
  "about": "“ANTI-TROP2 ANTIBODY-DRUG CONJUGATE” (DAIICHI SANKYO COMPANY, LIMITED, priority 2013, published 2025)",
  "molecules": {"B1": {"name": "TINA1: antibody produced by the TROP2 hybridoma TINA1; mouse anti-TROP2 monoclonal antibody (antibody, listed as Mus musculus, V domains shown)", "VH": "QIQLVQSGPELKKPGETVRISCKASGYTFTTAGMQWVQKMPGKGLKWIGWINTHSGVPKYAEDFKGRFAFSLETSASTAYLQISNLKNEDTTTYFCARSGFGSSYWYFDVWGAGTAVTVSS", "VL": "DIVMTQSHKFMSTSVGDRVSITCKASQDVSTAVAWYQQKPGQSPKLLIYSASYRYTGVPDRFTGSGSGTAFTFTISSVQAEDLAVYYCQQHYITPLTFGAGTKLELKRA"}},
  "key": {"topoisomerase I": {"molecular_target": "T1, topoisomerase I (Homo sapiens, UniProt P11387)", "T1 sequence (P11387 1-765)": "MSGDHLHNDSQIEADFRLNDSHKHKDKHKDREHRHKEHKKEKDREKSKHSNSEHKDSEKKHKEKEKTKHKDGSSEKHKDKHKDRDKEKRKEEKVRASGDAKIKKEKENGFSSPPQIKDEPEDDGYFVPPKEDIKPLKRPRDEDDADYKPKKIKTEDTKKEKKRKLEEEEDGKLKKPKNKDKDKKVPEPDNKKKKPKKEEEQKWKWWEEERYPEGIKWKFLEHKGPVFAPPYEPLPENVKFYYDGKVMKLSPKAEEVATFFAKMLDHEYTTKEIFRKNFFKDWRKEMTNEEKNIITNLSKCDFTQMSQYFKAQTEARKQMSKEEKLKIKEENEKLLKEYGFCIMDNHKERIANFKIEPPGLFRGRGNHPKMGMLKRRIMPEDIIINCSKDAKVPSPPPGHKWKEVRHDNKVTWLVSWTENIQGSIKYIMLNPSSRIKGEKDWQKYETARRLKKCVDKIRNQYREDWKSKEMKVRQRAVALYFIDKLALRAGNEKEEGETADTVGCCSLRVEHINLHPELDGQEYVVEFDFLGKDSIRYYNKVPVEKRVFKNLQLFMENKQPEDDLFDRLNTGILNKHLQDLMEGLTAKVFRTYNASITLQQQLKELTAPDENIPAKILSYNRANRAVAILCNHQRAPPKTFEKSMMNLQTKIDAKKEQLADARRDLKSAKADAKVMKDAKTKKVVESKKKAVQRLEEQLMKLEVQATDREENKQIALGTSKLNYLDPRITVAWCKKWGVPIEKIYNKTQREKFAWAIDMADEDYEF", "settings": "compared with SN-38 and topotecan; cited from earlier work"}, "various cancer cells": {"system": "various cancer cells", "settings": "against various cancer cells; cited from earlier work"}, "human tumor": {"system": "human tumor", "settings": "human tumor subcutaneously transplanted mouse model; cited from earlier work"}, "[1]": {"experiment": "Self-degradation of released drug derivative with aminal structure", "type": "physicochemical"}, "[2]": {"molecular_target": "T2, CHOK1 cells expressing human TROP2 (Homo sapiens, UniProt P09758)", "T2 construct": "expressed in transfected cells; host or cells: CHOK1", "T2 sequence (P09758 27-323)": "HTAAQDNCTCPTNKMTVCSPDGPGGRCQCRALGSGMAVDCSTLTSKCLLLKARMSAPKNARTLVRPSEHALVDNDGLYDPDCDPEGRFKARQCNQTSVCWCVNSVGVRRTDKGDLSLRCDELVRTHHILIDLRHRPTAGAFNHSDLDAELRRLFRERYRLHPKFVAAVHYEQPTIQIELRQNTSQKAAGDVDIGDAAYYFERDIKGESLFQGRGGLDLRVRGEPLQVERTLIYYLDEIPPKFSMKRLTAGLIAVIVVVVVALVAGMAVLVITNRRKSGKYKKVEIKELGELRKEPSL", "experiment": "FACS analysis of TINA1 antibody on TROP2-overexpressing cells", "type": "cell-based", "procedure": "Because the antigen of the TINA1 antibody was predicted to be TROP2 from the band pattern, overexpression analysis by gene transfer of cDNA was conducted without mass spectrometry. […] Similar FACS analysis was conducted using a lung cancer cell line PC14, a lung cancer cell line NCI-H322, a lung cancer cell line NCI-H2122, a lung cancer cell line LCAM1, a lung cancer cell line LC2/ad, a pancreatic cancer cell line MIAPaCa2, a pancreatic cancer cell line PK-1, a prostate cancer cell line PC3, a colorectal cancer cell line HCT116, a melanoma cell line A375, an ovarian cancer cell line SKOV3, a hematopoietic tumor cell line RPMI8226, a hematopoietic tumor cell line K562, PBMC (human peripheral blood mononuclear cells), and human platelet. All of the examined lung cancer cell lines were TROP2-positive, and PC3, PK1, and SKOV3 were positive as the cell lines except for the lung cancer ones. On the other hand, all of the normal blood cells were negative."}, "NCI-H322 cells": {"system": "NCI-H322 cells", "experiment": "Internalization activity and immunotoxin activity using DT3C", "type": "cell-based, human", "text": "4-1) Antibody internalization activity evaluation system A recombinant fusion protein DT3C was produced for the purpose of measuring internalization activity and immunotoxin activity of an antibody. This DT3C is a protein having a catalytic domain of diphtheria toxin (DT) and three antibody-binding regions of protein G. DT3C specifically binds to an Fc moiety of an antibody, is stable, and induces cell death by inhibiting protein synthesis when taken up into cells. By use of this system, the internalization effect of antibody and the cytocidal effect thereof by immunotoxin can be observed at the same time (Yamaguchi, M., Hamada, H., et al., Biochemical and Biophysical Research Communications 454 (2014) 600-603).\n4 μg/mL of DT3C was added at 25 μL/well to a 96-well plate, further the culture supernatants of 11 hybridomas obtained by the method of Example 1 or a method equivalent thereto were each added at 25 μL/well to the plate, and the plate was incubated at room temperature for 30 minutes. […] After incubation for 1 hour in a CO2 incubator of 37° C., the number of live cells was measured using a microplate reader (OD450 to OD640, infinite 200, Tecan Trading AG).\nEach diluted solution of DT3C (0, 0.004, 0.04, 0.4, 4, or 40 μg/mL) was added at 25 μL/well to a 96-well plate, then each antibody (40 μg/mL) was added at 25 μL/well to the plate, and the plate was incubated at room temperature for 30 minutes. […] After incubation for 1 hour in a CO2 incubator of 37° C., the number of live cells was measured using a plate reader (OD450 to OD640).\nAnti-TROP2 antibodies TINA1 (immunogen: lung cancer line NCI-H322), KCL7A3 and KCL2D6 (immunogen: pancreatic cancer cell line KCL-MOH1), Pr1E11 and Pr8H10 (immunogen: prostate cancer cell line Pc-1), and NY16 and NY17 (immunogen: pancreatic cancer cell line PK-1) obtained by the method of Example 1 or a method equivalent thereto, and commercially available 77220 (R&D Systems Inc.) were evaluated for their internalization activity and immunotoxin activity in the same manner as in Example 4-3)."}},
  "data": [
    {"molecule": "CC[C@@]1(O)C(=O)OCc2c1cc1n(c2=O)Cc2c-1nc1cc(F)c(C)c3c1c2[C@@H](N)CC3", "note": "[exatecan, (1S,9S)-1-amino-9-ethyl-5-fluoro-2,3-dihydro-9-hydroxy-4-methyl-1H,12H-benzo[de]pyrano[3′,4′:6,7]indolizino[1,2-b]quinolin-10,13(9H,15H)-dione]", "values": [
      {"measurement": "inhibitory activity on topoisomerase I", "setting": "topoisomerase I", "value": "higher than SN-38"},
      {"measurement": "in vitro cytocidal activity", "setting": "various cancer cells", "value": "higher in vitro cytocidal activity"},
      {"measurement": "antitumor effect", "setting": "human tumor", "value": "potent antitumor effect"}
    ]},
    {"molecule": "CCC1(O)C(=O)OCc2c1cc1n(c2=O)Cc2c-1nc1cc(F)c(C)c3c1c2C(NC(=O)COCN)CC3", "note": "(centres unmarked) [NH2—CH2—O—CH2—C(═O)—(NH-DX)]", "values": [
      {"measurement": "stability of the aminal structure (self-degradation to HO—CH2—C(═O)—(NH-DX))", "setting": "[1]", "value": "unstable"}
    ]},
    {"molecule": "B1", "values": [
      {"measurement": "FACS response", "setting": "[2]", "value": "strong positive response"},
      {"measurement": "internalization activity and immunotoxin activity", "setting": "NCI-H322 cells; among the 8 anti-TROP2 antibodies, as Example 4-3, FIG. 12", "value": "strongest activity"},
      {"measurement": "internalization activity and immunotoxin activity", "setting": "NCI-H322 cells; antibody 40 μg/mL + DT3C 0-40 μg/mL, among antibodies against CD59, CD71, EGFR, EpCAM, TROP2, FIG. 11", "value": "strongest internalization activity and immunotoxin activity"},
      {"measurement": "internalization activity and immunotoxin activity", "setting": "NCI-H322 cells; hybridoma culture supernatant + DT3C 4 μg/mL, NCI-H322 cells, 3 days, FIG. 10", "value": "strong internalization activity and immunotoxin activity"}
    ]}
  ]
}
